Reference: the supplement of paper PMC10307832

The cell lines below were run with CC1=C(N=C(N=C1N)[C@H](CC(=O)N)NC[C@@H](C(=O)N)N)C(=O)N[C@@H]([C@H](C2=CN=CN2)OC3C(C(C(C(O3)CO)O)O)OC4C(C(C(C(O4)CO)O)OC(=O)N)O)C(=O)N[C@H](C)[C@H]([C@H](C)C(=O)N[C@@H]([C@@H](C)O)C(=O)NCCC5=NC(=CS5)C6=NC(=CS6)C(=O)NCCC[S+](C)C)O [Bleomycin] + COc1cc2c(Oc3ccc(NC(=O)C4(C(=O)Nc5ccc(F)cc5)CC4)cc3F)ccnc2cc1OCCCN1CCOCC1 [Foretinib] (partner 0.25 µM) (assay: relative viability (nuclei count vs DMSO), 5 days (fraction); higher = more cells survive). Details: first compound 0.01 µM; main component drawn.
Outline: (§1)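 A single step with final 0.05% Triton X-100, 1% formaldehyde and 1 ug/ml Hoechst fixed the cells and stained nuclei 5 days after treatment. Lung cancer cell lines in 1536-well plates had been treated by pin tool the day after seeding with one drug alone or a fixed anchor-drug dose plus five library-drug doses (not always all listed) in √10 steps, and nuclei were counted on 4× images. Relative viability is the ratio of nuclei in treated wells to nuclei in vehicle wells, taken as the median of duplicate plates.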
NCI-H1355 was tested, and the relative viability was 0.931.
In the case of NCI-H322M, the relative viability is reported as 0.79.
NCI-H1437 was tested, and the relative viability was 1.18.
With NCI-H1755 the relative viability was 0.838.
In the case of HCC-15, the relative viability is reported as 0.869.
With NCI-H1793 the relative viability was 0.717.
PC-3 [JPC-3] gave a relative viability of 0.929.
Work on EKVX yielded a relative viability of 0.707.
With LC-2-ad the relative viability was 0.754.
NCI-H1944 was tested, and the relative viability was 0.55.
With NCI-H1975 the relative viability was 0.708.
Work on ABC-1 yielded a relative viability of 0.773.
NCI-H358 gave a relative viability of 0.606.
For RERF-LC-KJ, the relative viability was 0.735.

Same assay, conditions: first compound 0.03162 µM; main component drawn
Work on NCI-H1355 yielded a relative viability of 0.971.
Work on NCI-H322M yielded a relative viability of 0.951.
NCI-H1437 gave a relative viability of 1.12.
NCI-H1755 gave a relative viability of 0.976.
HCC-15 showed a relative viability of 0.913.
In the case of NCI-H1793, the relative viability is reported as 0.724.
With PC-3 [JPC-3] the relative viability was 1.24.
For EKVX, the relative viability was 0.889.
LC-2-ad was tested, and the relative viability was 0.729.
Work on NCI-H1944 yielded a relative viability of 0.391.
With NCI-H1975 the relative viability was 0.582.
For ABC-1, the relative viability was 0.9.
With NCI-H358 the relative viability was 0.591.
RERF-LC-KJ was tested, and the relative viability was 0.693.

Same assay, conditions: first compound 0.1 µM; main component drawn
For NCI-H1355, the relative viability was 0.937.
With NCI-H322M the relative viability was 0.865.
For NCI-H1437, the relative viability was 0.959.
NCI-H1755 was tested, and the relative viability was 0.948.
With HCC-15 the relative viability was 0.752.
In the case of NCI-H1793, the relative viability is reported as 0.734.
Work on PC-3 [JPC-3] yielded a relative viability of 0.95.
EKVX was tested, and the relative viability was 0.423.
In the case of LC-2-ad, the relative viability is reported as 0.483.
NCI-H1944 showed a relative viability of 0.384.
NCI-H1975 gave a relative viability of 0.434.
ABC-1 gave a relative viability of 0.579.
For NCI-H358, the relative viability was 0.556.
RERF-LC-KJ showed a relative viability of 0.633.

Same assay, conditions: first compound 0.3162 µM; main component drawn
NCI-H1355 showed a relative viability of 0.52.
For NCI-H322M, the relative viability was 0.563.
NCI-H1437 was tested, and the relative viability was 0.695.
Work on NCI-H1755 yielded a relative viability of 0.638.
In the case of HCC-15, the relative viability is reported as 0.33.
NCI-H1793 showed a relative viability of 0.269.
PC-3 [JPC-3] gave a relative viability of 0.75.
EKVX showed a relative viability of 0.335.
Cell Line LC-2-ad has a relative viability of 0.264.
NCI-H1944 was tested, and the relative viability was 0.225.
Cell Line NCI-H1975 has a relative viability of 0.191.
For ABC-1, the relative viability was 0.346.
For NCI-H358, the relative viability was 0.351.
With RERF-LC-KJ the relative viability was 0.377.

Same assay, conditions: first compound 1 µM; main component drawn
With NCI-H1355 the relative viability was 0.348.
NCI-H322M showed a relative viability of 0.401.
NCI-H1437 was tested, and the relative viability was 0.619.
In the case of NCI-H1755, the relative viability is reported as 0.592.
HCC-15 gave a relative viability of 0.227.
NCI-H1793 was tested, and the relative viability was 0.218.
PC-3 [JPC-3] was tested, and the relative viability was 0.541.
Work on EKVX yielded a relative viability of 0.314.
LC-2-ad showed a relative viability of 0.281.
For NCI-H1944, the relative viability was 0.203.
Cell Line NCI-H1975 has a relative viability of 0.198.
Work on ABC-1 yielded a relative viability of 0.24.
For NCI-H358, the relative viability was 0.254.
With RERF-LC-KJ the relative viability was 0.307.

These cell lines were tested with CC1=C(N=C(N=C1N)[C@H](CC(=O)N)NC[C@@H](C(=O)N)N)C(=O)N[C@@H]([C@H](C2=CN=CN2)OC3C(C(C(C(O3)CO)O)O)OC4C(C(C(C(O4)CO)O)OC(=O)N)O)C(=O)N[C@H](C)[C@H]([C@H](C)C(=O)N[C@@H]([C@@H](C)O)C(=O)NCCC5=NC(=CS5)C6=NC(=CS6)C(=O)NCCC[S+](C)C)O [Bleomycin] + NC(=O)Nc1cc(-c2cccc(F)c2)sc1C(=O)N[C@H]1CCCNC1 [AZD7762] (partner 0.2 µM) in the same assay as above. Details: first compound 0.01 µM; main component drawn.
Outline: as §1
NCI-H1355 was tested, and the relative viability was 0.783.
For NCI-H322M, the relative viability was 0.529.
Cell Line NCI-H1437 has a relative viability of 1.04.
With NCI-H1755 the relative viability was 0.41.
With HCC-15 the relative viability was 1.07.
NCI-H1793 was tested, and the relative viability was 0.316.
PC-3 [JPC-3] was tested, and the relative viability was 0.727.
For EKVX, the relative viability was 0.607.
For LC-2-ad, the relative viability was 0.761.
NCI-H1944 was tested, and the relative viability was 0.246.
NCI-H1975 was tested, and the relative viability was 0.609.
Cell Line ABC-1 has a relative viability of 0.748.
For NCI-H358, the relative viability was 0.417.
In the case of RERF-LC-KJ, the relative viability is reported as 0.905.

Same assay, conditions: first compound 0.03162 µM; main component drawn
For NCI-H1355, the relative viability was 0.9.
NCI-H322M gave a relative viability of 0.523.
With NCI-H1437 the relative viability was 1.12.
With NCI-H1755 the relative viability was 0.495.
With HCC-15 the relative viability was 1.03.
NCI-H1793 showed a relative viability of 0.564.
PC-3 [JPC-3] gave a relative viability of 0.691.
EKVX showed a relative viability of 0.598.
Cell Line LC-2-ad has a relative viability of 0.775.
Cell Line NCI-H1944 has a relative viability of 0.384.
Cell Line NCI-H1975 has a relative viability of 0.649.
With ABC-1 the relative viability was 1.
With NCI-H358 the relative viability was 0.579.
For RERF-LC-KJ, the relative viability was 0.848.

Same assay, conditions: first compound 0.1 µM; main component drawn
NCI-H1355 gave a relative viability of 0.783.
NCI-H322M showed a relative viability of 0.564.
For NCI-H1437, the relative viability was 1.14.
With NCI-H1755 the relative viability was 0.36.
With HCC-15 the relative viability was 1.13.
Cell Line NCI-H1793 has a relative viability of 0.341.
With PC-3 [JPC-3] the relative viability was 0.768.
EKVX showed a relative viability of 0.544.
For LC-2-ad, the relative viability was 0.644.
In the case of NCI-H1944, the relative viability is reported as 0.317.
Cell Line NCI-H1975 has a relative viability of 0.555.
ABC-1 showed a relative viability of 0.845.
With NCI-H358 the relative viability was 0.551.
Work on RERF-LC-KJ yielded a relative viability of 0.492.

Same assay, conditions: first compound 0.3162 µM; main component drawn
NCI-H1355 was tested, and the relative viability was 0.63.
In the case of NCI-H322M, the relative viability is reported as 0.436.
Cell Line NCI-H1437 has a relative viability of 0.765.
NCI-H1755 gave a relative viability of 0.353.
Cell Line HCC-15 has a relative viability of 0.579.
Cell Line NCI-H1793 has a relative viability of 0.159.
PC-3 [JPC-3] was tested, and the relative viability was 0.513.
In the case of EKVX, the relative viability is reported as 0.538.
LC-2-ad showed a relative viability of 0.316.
NCI-H1944 was tested, and the relative viability was 0.211.
With NCI-H1975 the relative viability was 0.259.
In the case of ABC-1, the relative viability is reported as 0.573.
In the case of NCI-H358, the relative viability is reported as 0.426.
RERF-LC-KJ was tested, and the relative viability was 0.278.

Same assay, conditions: first compound 1 µM; main component drawn
In the case of NCI-H1355, the relative viability is reported as 0.323.
NCI-H322M was tested, and the relative viability was 0.416.
In the case of NCI-H1437, the relative viability is reported as 0.746.
In the case of NCI-H1755, the relative viability is reported as 0.311.
Work on HCC-15 yielded a relative viability of 0.599.
Cell Line NCI-H1793 has a relative viability of 0.177.
PC-3 [JPC-3] showed a relative viability of 0.428.
Cell Line EKVX has a relative viability of 0.237.
For LC-2-ad, the relative viability was 0.26.
In the case of NCI-H1944, the relative viability is reported as 0.172.
NCI-H1975 was tested, and the relative viability was 0.291.
In the case of ABC-1, the relative viability is reported as 0.34.
With NCI-H358 the relative viability was 0.446.
RERF-LC-KJ gave a relative viability of 0.179.
